Laboratory results taken from patent publication US9655884B2, “Antiparasitic use of isoxazoline compounds” (Intervet Inc., priority 2013, dated 2017).

Experiments:
C. felis = assay: In vivo study in dogs to assess flea control efficacy in a simulated home environment; conditions: 25 mg/kg oral; for Mean flea numbers (arithmetic), Treated group / Mean flea numbers (geometric), Treated group: 25 mg/kg
Experimental: Twenty healthy male and female mixed-breed dogs ≧12 weeks old were housed in individual pens. Ten dogs per group were randomly assigned to receive either a fluralaner chewable tablet (Bravecto™) or no treatment. Each pen contained the bottom half of a dog carrier lined with carpet as bedding. Before treatment, each dog was infested twice (28 and 21 days pretreatment) with 100 adult, unfed C. felis to establish a flea population prior to treatment on each dog. Flea media was added to the carpet 4 weeks before the treatment date and weekly thereafter for the remainder of the study to encourage development of an active, developing population of juvenile flea stages in each pen. On the treatment day, dogs in the treated group received fluralaner at a dose close to 25 mg/kg body weight by oral administration. The chewable tablet(s) were administered by placement in the back of the oral cavity over the tongue to initiate swallowing. Dogs in the negative control group remained untreated. Flea counts were performed on all dogs 1 day before treatment, 1 day after treatment and then every 7 days until completion of the study 84 days later. All live fleas recovered were held and re-infested on the dog after the comb count was completed. Each dog was also infested with 50 newly emerged unfed adult fleas on days 22, 50 and 78 to simulate natural infestation post-treatment. The individual dog was the experimental unit and data from each flea count time point were analyzed separately. Flea count data were transformed [Y=loge(x+1)] and analyzed by a mixed linear model including treatment as the fixed effect and block as the random effect. Kenward-Rogers adjustment was used to determine the denominator degree of freedom. A two-tailed test was used within the mixed linear model for the comparison between treatment groups and statistical significance was declared when P≦0.05. SAS version 9.3 was the primary software used for analysis. Efficacy was calculated using arithmetic and geometric means with Abbott's formula: Efficacy (%)=100×(MC−MT)/MC, where MC was the arithmetic or geometric mean number of total adult live fleas on untreated dogs and MT the arithmetic or geometric mean number of total adult live fleas on treated dogs.

[1] = Adverse events in treated dogs following administration; format: in vivo; conditions: chewable tablet (Bravecto), close to 25 mg/kg body weight oral
Experimental: Twenty healthy male and female mixed-breed dogs ≧12 weeks old were housed in individual pens. Ten dogs per group were randomly assigned to receive either a fluralaner chewable tablet (Bravecto™) or no treatment. Each pen contained the bottom half of a dog carrier lined with carpet as bedding. Before treatment, each dog was infested twice (28 and 21 days pretreatment) with 100 adult, unfed C. felis to establish a flea population prior to treatment on each dog. Flea media was added to the carpet 4 weeks before the treatment date and weekly thereafter for the remainder of the study to encourage development of an active, developing population of juvenile flea stages in each pen. On the treatment day, dogs in the treated group received fluralaner at a dose close to 25 mg/kg body weight by oral administration. The chewable tablet(s) were administered by placement in the back of the oral cavity over the tongue to initiate swallowing. Dogs in the negative control group remained untreated.

[2] = day 1 post treatment, listed as fluranaler
[3] = day 7 post treatment, listed as fluranaler
[4] = day 14 post treatment, listed as fluranaler
[5] = day 21 post treatment, listed as fluranaler
[6] = day 28 post treatment, listed as fluranaler
[7] = day 35 post treatment, listed as fluranaler
[8] = day 42 post treatment, listed as fluranaler
[9] = day 49 post treatment, listed as fluranaler
[10] = day 56 post treatment, listed as fluranaler
[11] = day 63 post treatment, listed as fluranaler
[12] = day 70 post treatment, listed as fluranaler
[13] = day 77 post treatment, listed as fluranaler
[14] = day 84 post treatment, listed as fluranaler

In the case of `Cc1cc(C2=NOC(c3cc(Cl)cc(Cl)c3)(C(F)(F)F)C2)ccc1C(=O)NCC(=O)NCC(F)(F)F` (centres unmarked) [fluralaner, 4-[5-(3,5-Dichlorophenyl)-5-trifluoromethyl-4,5-dihydroisoxazol-3-yl]-2-methyl-N-[(2,2,2-trifluoro-ethylcarbamoyl)-methyl]-benzamide], the Flea-control efficacy (C. felis; all post-treatment time points (12-week post-treatment period)) was roughly 100%, the “Efficacy (from arithmetic mean flea counts)” value (C. felis; day 1 post treatment) was 100/100% and the “Efficacy (from geometric mean flea counts)” value (C. felis; day 1 post treatment) was 100/100%. For the same molecule, the “Mean flea numbers (arithmetic), Treated group” value (“Mean flea numbers (arithmetic)” for short) (C. felis; day 1 post treatment) was 0, the “Mean flea numbers (geometric), Treated group” value (“Mean flea numbers (geometric)” for short) (C. felis; day 1 post treatment) was 0 and the “Mean flea numbers (arithmetic)” value (C. felis; [2]) was 0/0. For the same molecule, the “Mean flea numbers (geometric)” value (C. felis; [2]) was 0/0, the “Efficacy (from arithmetic mean flea counts)” value (C. felis; day 7 post treatment) was 100/100% and the “Efficacy (from geometric mean flea counts)” value (C. felis; day 7 post treatment) was 100/100%. For the same molecule, the “Mean flea numbers (arithmetic)” value (C. felis; day 7 post treatment) was 0, the “Mean flea numbers (geometric)” value (C. felis; day 7 post treatment) was 0 and the “Mean flea numbers (arithmetic)” value (C. felis; [3]) was 0/0. The “Mean flea numbers (geometric)” value (C. felis; [3]) was 0/0, the “Efficacy (from arithmetic mean flea counts)” value (C. felis; day 14 post treatment) was 100/100% and the “Efficacy (from geometric mean flea counts)” value (C. felis; day 14 post treatment) was 100/100%. The “Mean flea numbers (arithmetic)” value (C. felis; day 14 post treatment) was 0, the “Mean flea numbers (geometric)” value (C. felis; day 14 post treatment) was 0 and the “Mean flea numbers (arithmetic)” value (C. felis; [4]) was 0/0. For the same molecule, the “Mean flea numbers (geometric)” value (C. felis; [4]) was 0/0, the “Efficacy (from arithmetic mean flea counts)” value (C. felis; day 21 post treatment) was 100/100% and the “Efficacy (from geometric mean flea counts)” value (C. felis; day 21 post treatment) was 100/100%. The “Mean flea numbers (arithmetic)” value (C. felis; day 21 post treatment) was 0, the “Mean flea numbers (geometric)” value (C. felis; day 21 post treatment) was 0 and the “Mean flea numbers (arithmetic)” value (C. felis; [5]) was 0/0. The “Mean flea numbers (geometric)” value (C. felis; [5]) was 0/0, the “Efficacy (from arithmetic mean flea counts)” value (C. felis; day 28 post treatment) was 100/100% and the “Efficacy (from geometric mean flea counts)” value (C. felis; day 28 post treatment) was 100/100%. The “Mean flea numbers (arithmetic)” value (C. felis; day 28 post treatment) was 0, the “Mean flea numbers (geometric)” value (C. felis; day 28 post treatment) was 0 and the “Mean flea numbers (arithmetic)” value (C. felis; [6]) was 0/0. For the same molecule, the “Mean flea numbers (geometric)” value (C. felis; [6]) was 0/0, the “Efficacy (from arithmetic mean flea counts)” value (C. felis; day 35 post treatment) was 100/100% and the “Efficacy (from geometric mean flea counts)” value (C. felis; day 35 post treatment) was 100/100%. The “Mean flea numbers (arithmetic)” value (C. felis; day 35 post treatment) was 0, the “Mean flea numbers (geometric)” value (C. felis; day 35 post treatment) was 0 and the “Mean flea numbers (arithmetic)” value (C. felis; [7]) was 0/0. The “Mean flea numbers (geometric)” value (C. felis; [7]) was 0/0, the “Efficacy (from arithmetic mean flea counts)” value (C. felis; day 42 post treatment) was 100/100% and the “Efficacy (from geometric mean flea counts)” value (C. felis; day 42 post treatment) was 100/100%. The “Mean flea numbers (arithmetic)” value (C. felis; day 42 post treatment) was 0, the “Mean flea numbers (geometric)” value (C. felis; day 42 post treatment) was 0 and the “Mean flea numbers (arithmetic)” value (C. felis; [8]) was 0/0. For the same molecule, the “Mean flea numbers (geometric)” value (C. felis; [8]) was 0/0, the “Efficacy (from arithmetic mean flea counts)” value (C. felis; day 49 post treatment) was 99.8% and the “Efficacy (from geometric mean flea counts)” value (C. felis; day 49 post treatment) was 99.7%. For the same molecule, the “Mean flea numbers (arithmetic)” value (C. felis; day 49 post treatment) was 0.1, the “Mean flea numbers (geometric)” value (C. felis; day 49 post treatment) was 0.1 and the “Mean flea numbers (arithmetic)” value (C. felis; [9]) was 0.1/0.1. For the same molecule, the “Mean flea numbers (geometric)” value (C. felis; [9]) was 0.1/0.1, the “Efficacy (from arithmetic mean flea counts)” value (C. felis; day 56 post treatment) was 99.8/99.8% and the “Efficacy (from geometric mean flea counts)” value (C. felis; day 56 post treatment) was 99.8/99.8%. For the same molecule, the “Mean flea numbers (arithmetic)” value (C. felis; day 56 post treatment) was 0.1, the “Mean flea numbers (geometric)” value (C. felis; day 56 post treatment) was 0.1 and the “Mean flea numbers (arithmetic)” value (C. felis; [10]) was 0.1/0.1. For the same molecule, the “Mean flea numbers (geometric)” value (C. felis; [10]) was 0.1/0.1, the “Efficacy (from arithmetic mean flea counts)” value (C. felis; day 63 post treatment) was 100/100% and the “Efficacy (from geometric mean flea counts)” value (C. felis; day 63 post treatment) was 100/100%. For the same molecule, the “Mean flea numbers (arithmetic)” value (C. felis; day 63 post treatment) was 0, the “Mean flea numbers (geometric)” value (C. felis; day 63 post treatment) was 0 and the “Mean flea numbers (arithmetic)” value (C. felis; [11]) was 0/0. For the same molecule, the “Mean flea numbers (geometric)” value (C. felis; [11]) was 0/0, the “Efficacy (from arithmetic mean flea counts)” value (C. felis; day 70 post treatment) was 99.7% and the “Efficacy (from geometric mean flea counts)” value (C. felis; day 70 post treatment) was 99.6%. The “Mean flea numbers (arithmetic)” value (C. felis; day 70 post treatment) was 0.1, the “Mean flea numbers (geometric)” value (C. felis; day 70 post treatment) was 0.1 and the “Mean flea numbers (arithmetic)” value (C. felis; [12]) was 0.1/0.1. For the same molecule, the “Mean flea numbers (geometric)” value (C. felis; [12]) was 0.1/0.1, the “Efficacy (from arithmetic mean flea counts)” value (C. felis; day 77 post treatment) was 100/100% and the “Efficacy (from geometric mean flea counts)” value (C. felis; day 77 post treatment) was 100/100%. The “Mean flea numbers (arithmetic)” value (C. felis; day 77 post treatment) was 0, the “Mean flea numbers (geometric)” value (C. felis; day 77 post treatment) was 0 and the “Mean flea numbers (arithmetic)” value (C. felis; [13]) was 0/0. For the same molecule, the “Mean flea numbers (geometric)” value (C. felis; [13]) was 0/0, the “Efficacy (from arithmetic mean flea counts)” value (C. felis; day 84 post treatment) was 100/100% and the “Efficacy (from geometric mean flea counts)” value (C. felis; day 84 post treatment) was 100/100%. The “Mean flea numbers (arithmetic)” value (C. felis; day 84 post treatment) was 0, the “Mean flea numbers (geometric)” value (C. felis; day 84 post treatment) was 0 and the “Mean flea numbers (arithmetic)” value (C. felis; [14]) was 0/0. For the same molecule, the “Mean flea numbers (geometric)” value (C. felis; [14]) was 0/0 and the Adverse events [1] was “No adverse events were observed”.
